Among the test systems are MDA-N; MOLT-4 leukemia; BT-549 breast; HS 578T breast; PC-3 prostate; DMS 273 small cell lung; LXFL 529 NSCLC; SNB-78 CNS; DLD-1 colon; KM20L2 colon; DMS 114 small cell lung; M19-MEL melanoma; XF 498 CNS; DU-145 prostate; HOP-18 NSCLC; P388/ADR leukemia; SN12K1 renal; P388 leukemia.
Test in all cases: NCI tumour cell line growth inhibition, 48 h

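1) Cells in 96-well plates. 2) Compound, 48 h, 5 concentrations. 3) Linear interpolation between surrounding doses. 4) Unreached endpoint = highest concentration. GI50: concentration for 50% inhibition of growth. TGI: concentration producing complete growth inhibition.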

As to `O=c1[nH]c2[nH]c(=S)[nH]c(=S)c2[nH]1`, the TGI with MDA-N, with MOLT-4 leukemia, with BT-549 breast, in the assay on HS 578T breast and in the assay on PC-3 prostate was more than 100 µM in each case.
For the compound `COc1ccc2nc3cc(Cl)ccc3c(NC(C)CCCN(CCCl)CCCl)c2c1` (configuration not stated), the TGI in the assay with DMS 273 small cell lung is 2.27 µM; with LXFL 529 NSCLC, 2.5 µM; in the assay with MOLT-4 leukemia, 0.344 µM; in the assay with SNB-78 CNS it was 7.38 µM; in the assay on DLD-1 colon, 4.1 µM; in the assay on KM20L2 colon, 5.73 µM. For the same compound, the TGI with DMS 114 small cell lung is 11.4 µM; in the assay on M19-MEL melanoma it was 8.78 µM; with XF 498 CNS, 4.43 µM.
In the case of `O=C1C(Cl)N(c2ccccc2Cl)C1c1c[nH]c2ccccc12` (configuration not stated), the TGI in the assay on MOLT-4 leukemia, in the assay on KM20L2 colon, with DMS 114 small cell lung, with M19-MEL melanoma and with XF 498 CNS was more than 100 µM in each case.
On to `CCN(CC)CCNc1ccc2ncn3c4ccc(O)cc4c(=O)c1c23`, for which the TGI in the assay on MDA-N amounted to 17.9 µM; in the assay on DMS 273 small cell lung it was 12.5 µM; with LXFL 529 NSCLC, 17.6 µM; with DU-145 prostate, 18.4 µM; with MOLT-4 leukemia, 3.59 µM; with SNB-78 CNS it was 17.6 µM. The TGI in the assay with DLD-1 colon was 15.1 µM; in the assay with BT-549 breast, 24.9 µM; in the assay on KM20L2 colon, 14.9 µM; with M19-MEL melanoma, 17.1 µM; with HOP-18 NSCLC, 33.3 µM; in the assay with HS 578T breast it was 21 µM. The TGI was found to be 14.5 µM in the assay on PC-3 prostate and 7.42 µM in the assay on XF 498 CNS.
Turning to `O=C(CSCC(=O)N/N=C/c1cccc(O)c1)N/N=C/c1cccc(O)c1`, the TGI in the assay with DU-145 prostate, in the assay on MOLT-4 leukemia, with HS 578T breast and in the assay with PC-3 prostate was more than 100 µM throughout.
Consider `O=C1c2ccccc2C(=O)c2[nH]cnc21`, for which the TGI was more than 100 µM with DMS 273 small cell lung; more than 100 µM in the assay with MOLT-4 leukemia; more than 100 µM with SNB-78 CNS; more than 100 µM with DLD-1 colon; 86.9 µM with DMS 114 small cell lung; 40.6 µM in the assay on M19-MEL melanoma. For the same compound, the TGI with XF 498 CNS is 99.4 µM.
`O=C1c2cc(O)c(O)cc2O[C@H](c2ccc(O)c(O)c2)[C@H]1O`: the TGI in the assay with MDA-N, with DU-145 prostate, with MOLT-4 leukemia, with BT-549 breast, in the assay on HS 578T breast and with PC-3 prostate was more than 100 µM in each case.
Take `O=C1c2cc3c(cc2-c2c1c1ccc(Cl)cc1c(=O)n2C[C@H](O)CO)OCO3`: in the assay with DU-145 prostate, the GI50 is 0.0323 µM and the TGI was determined as 1.08 µM. For the same compound, in the assay with MOLT-4 leukemia, the GI50 was less than 0.01 µM and the TGI is 12.4 µM.
`Oc1ccc(C(=C(Br)c2ccccc2)c2ccc(O)cc2)cc1`: the TGI in the assay on MDA-N worked out at 4.1 µM; in the assay on DU-145 prostate it was 25.7 µM; in the assay with MOLT-4 leukemia, 40.5 µM; with BT-549 breast, 15.4 µM; in the assay on HS 578T breast, 22 µM; in the assay on PC-3 prostate, 19.9 µM.
Regarding `C=CCNC(=O)C(C)C1CCC2(C)C=CC(=O)C(C)=C2C1O` (configuration not stated), the TGI was more than 100 µM with DMS 273 small cell lung; more than 100 µM in the assay with MOLT-4 leukemia; more than 89.1 µM in the assay with SNB-78 CNS; more than 100 µM with DLD-1 colon; more than 100 µM in the assay on P388/ADR leukemia; more than 100 µM with KM20L2 colon. In addition, the TGI in the assay on DMS 114 small cell lung, with M19-MEL melanoma, in the assay with SN12K1 renal, with P388 leukemia, with HOP-18 NSCLC and with XF 498 CNS was more than 100 µM in each case.

The record behind these values is PubChem BioAssay (NCI).
